From US8367835B2, “Cyclic amine-1-carboxylic acid ester derivative and pharmaceutical composition containing the same” (Dainippon Sumitomo Pharma Co., Ltd., priority 2008, dated 2013)
Where two headings read alike, the source gives them in different places.

Key:
[1] = tested on: micronucleus-containing immature erythrocyte; experiment: Bone marrow micronucleus test; assay type: in vivo, rat; settings: subcutaneous, twice every 24 hours, Crl: CD male rats; dosage at which fatal cases start occurring and dosages up thereto
Protocol: Each compound of Examples 2, 16 and 37 dissolved in physiological saline containing ethanol and Tween 80 was subcutaneously administered to Crl: CD male rats twice every 24 hours and micronucleus inducing potential was evaluated.

TRPV1 = target: T1, TRPV1 (Rattus norvegicus, UniProt O35433); experiment: TRPV1 agonist activity by intracellular calcium level (FLIPR method); assay type: cell-based; settings: rat dorsal root ganglion primary culture cells
T1 construct: using cultured rat dorsal root ganglion cells which express TRPV1 abundantly; endogenous in cells; host or cells: primary culture of dorsal root ganglion cells from 7 day old Wistar rat
T1 sequence (O35433 whole entry): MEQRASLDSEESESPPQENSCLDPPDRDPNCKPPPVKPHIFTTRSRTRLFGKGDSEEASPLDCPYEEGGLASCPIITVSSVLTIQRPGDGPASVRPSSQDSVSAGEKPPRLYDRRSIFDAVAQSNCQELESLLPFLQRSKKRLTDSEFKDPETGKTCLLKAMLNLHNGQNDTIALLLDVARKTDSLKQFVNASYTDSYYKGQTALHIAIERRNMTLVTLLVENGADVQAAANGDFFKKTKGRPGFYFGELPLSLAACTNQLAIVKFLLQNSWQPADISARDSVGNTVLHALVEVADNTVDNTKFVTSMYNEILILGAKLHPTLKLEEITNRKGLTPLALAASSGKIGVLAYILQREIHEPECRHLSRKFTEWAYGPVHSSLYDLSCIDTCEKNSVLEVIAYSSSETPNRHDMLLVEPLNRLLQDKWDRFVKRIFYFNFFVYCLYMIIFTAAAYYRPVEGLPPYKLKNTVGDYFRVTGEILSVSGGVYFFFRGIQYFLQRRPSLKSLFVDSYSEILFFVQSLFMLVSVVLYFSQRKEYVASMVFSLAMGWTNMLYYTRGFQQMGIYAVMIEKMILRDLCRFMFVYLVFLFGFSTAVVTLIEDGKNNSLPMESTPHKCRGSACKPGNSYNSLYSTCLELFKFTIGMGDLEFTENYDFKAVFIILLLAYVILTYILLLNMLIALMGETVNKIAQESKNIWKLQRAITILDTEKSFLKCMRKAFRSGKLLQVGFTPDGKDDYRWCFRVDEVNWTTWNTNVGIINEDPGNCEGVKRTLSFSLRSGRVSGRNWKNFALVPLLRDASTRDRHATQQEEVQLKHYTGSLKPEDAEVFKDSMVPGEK
Description: The test is to measure the elevation of intracellular calcium level as the indicator of TRPV1 agonist activity of a test compound using cultured rat dorsal root ganglion cells which express TRPV1 abundantly, and carried out in accordance with the method of Jerman et al. (Jerman, J. C. et al., Comparison of effects of anandamide at recombinant and endogenous rat vanilloid receptors. Br J Anaesth, 2002. 89(6): p. 882-7). More specifically, the dorsal root ganglion was removed from a 7 day old Wistar rat, and the cells were isolated by collagenase-trypsin treatment. Subsequently, the primary cells was cultured in a CO2 incubator controlled at 5% CO2 and 37° C. for 2 days. The culture medium used was Neurobasal™ medium supplemented with L-glutamine, nerve growth factor, N-2-Supplement, Penicillin-Streptomycin, 5-Fluoro-2′-deoxyuridine (culture day 1 only) were added to.
FLIPR^TETRA system (Molecular Devices Corp.) was used to measure the intracellular calcium concentration. As an indicator of TRPV1 agonistic activity, the fluorescence intensity elevation was monitored when a test compound is applied to the rat dorsal root ganglion primary culture cells loaded with a calcium-sensitive fluorescent reagent.

[2] = tested on: mechanical hyperalgesia in a neuropathic pain model (rat Chung model); experiment: Analgesic effect: von Frey filament test using rat Chung model, transdermal administration; assay type: in vivo; settings: 0.1% formulation applied transdermally to plantar surface of left hindlimb once a day for 2 weeks; measured on the day after last administration; pre-administration value = 100%
Protocol: The present test is to measure the analgesic effect based on the improvement level of the mechanical hyperalgesia in a neuropathic pain model as the indicator by transdermally administering the compound of the present invention and was carried out in accordance with the method of Kim and Chung [Pain, 50, 355-363 (1992)] or the method of Tsuda et al. [Nature, 424, 778-783, 2003].
Specifically, using Jcl: Wistar male rat (7 to 9 rats/group, 5 weeks of age at the time of surgery), spinal nerves were injured to induce hyperalgesia and the withdrawal threshold was measured using the von Frey filament. In the surgery, under Pentobarbital anesthesia, the left L5 spinal nerve was exposed, ligated near the spinal cord using a silk suture (5-0) and transected just peripheral to the ligation. After suturing the incision and keeping the rats for 2 weeks, the rats were subjected to the von Frey filament test. The measurement of the mechanical hyperalgesia was carried out by applying von Frey filaments (1.0, 2.0, 4.0, 8.0, 15.0 g) to the plantar surface of the left hindlimb, and the filament intensity at which 50% or higher withdrawal behavior was observed was defined as the withdrawal threshold.
After dissolving the test compounds in a mixture of Tween 80 and ethanol, the obtained solution was mixed with a hydrophilic ointment to prepare a formulation having a concentration of 0.1%. The withdrawal threshold before administering the test compound was measured to define the pre-administration value (100%). Thereafter, once a day, for 2 weeks, the formulation having a concentration of 0.1% was transdermally administered (applied) to the plantar surface of the left hindlimb, the von Frey filament test was carried out on the following day of the last administration to measure the post-administration value. Further, the same formulation as above but free of the test compound was prepared as a vehicle control and the same test was carried out.
The analgesic effect is a relative ratio when a test compound pre-administration value calculated using the following numerical formula is 100%. The pre-administration withdrawal threshold was 3.3±0.1 g (119 cases) (the withdrawal threshold of sham-operated rat was 10 to 15 g). %=(test compound post-administration withdrawal threshold value/pre-administration withdrawal threshold value)×100

[3] = tested on: mechanical hyperalgesia in a neuropathic pain model (rat Chung model); experiment: Analgesic effect in combination with Pregabalin: von Frey filament test using rat Chung model, i.pl. administration; assay type: in vivo; settings: for % to pre-administration value: (1) Test compound post-i. pl. administration value: 50 μl of 0.1% (W/V) solution intraplantar to left hindlimb, measured on the following day, test compound alone; for % to pre-administration value: (2) Pregabalin post-oral administration value (Test compound administered on the day before): test compound i.pl. the day before plus Pregabalin 10 mg/kg orally, combined effect
Protocol: The study was conducted using the same methods and evaluation criteria as in Test Example 1 with the exception of the administration route of the test compounds (see Test Example 1).
Using the von Frey filaments the test compound pre-administration values (pressure withdrawal threshold) were measured. Subsequently, 50 μl of a solution containing a test compound or vehicle control was intraplantarly injected to the left hindlimb using a microsyringe (intraplantar injection: i. pl. administration), and on the following day the withdrawal threshold was measured (effect of the test compound alone). Thereafter, 10 mg/kg of Pregabalin was orally administered and an hour later the withdrawal threshold was measured (combined effect).
Pregabalin was dissolved in distilled water. Physiological saline containing Tween 80 and ethanol was used as the vehicle control for the i. pl. administration.
The analgesic effect is a relative ratio when a pre-administration value calculated using the following numerical formula is 100%.

[4] = tested on: eye of a Std: ddy male mouse; experiment: Pungency: eye-wiping test; assay type: in vivo; settings: 10 μg/ml, one drop to mouse eye, counted every minute up to 5 minutes
Protocol: The test is to examine the pungency of the compound of the present invention, and was carried out in accordance with the method by Jancso et al. [Acta. Physiol. Acad. Sci. Hung., 19, 113-131 (1961)] and the method by Szallasi et al. [Brit. J. Pharmacol., 119, 283-290 (1996)]. Specifically, the test compounds were dissolved in physiological saline containing 5% Tween 80 and 5% ethanol to give each (10 or 30 μg/ml) concentration, and one drop of the obtained solution was applied to the eye of a Std: ddy male mouse (5 mice per group, body weight 20 to 30 g) and the number of the protective wiping behavior with the front paws was counted every minute up to 5 minutes after the administration. Then, the average counts in each minute was calculated and the maximum number was defined as the representative value. Further, as vehicle control, the same test was carried out using physiological saline containing 5% Tween 80 and 5% ethanol.

[5] = read-out: Value (%) when fluorescence intensity for capsaicin (1 μM) is 100%, 1 μM
[6] = 1 μM, read-out: Value (%) when fluorescence intensity for capsaicin (1 μM) is 100%

Row | Compound | micronucleus inducing potential [1] | % to pre-administration value (withdrawal threshold) [2] | % to pre-administration value: (1) Test compound post-i. pl. administration value [3] | % to pre-administration value: (2) Pregabalin post-oral administration value (Test compound administered on the day before) ([3]; measured an hour later) | other results
1 | CC[C@H]1CC[C@H](OC(=O)N2CCC(C(=O)NCc3ccc(O)c(OC)c3)CC2)CC1 [Example 2] | no micronucleus inducing potential |  |  |  | Emax at 1 µM (TRPV1; [5]): 84%
2 | COc1cc(CNC(=O)C2CN(C(=O)O[C@H]3CC[C@@H](C(C)(C)C)CC3)C2)ccc1O [Example 16] | no micronucleus inducing potential | 218% | 200% | 223% | Emax at 1 µM (TRPV1; [5]): 84%
3 | COc1cc(CNC(=O)CCCC/C=C/C(C)C)ccc1O [Capsaicin, (E)-8-methyl-N-vanillyl-6-nonenamide, reference compound] |  | 228% |  |  | Representative value of the counts of protective wiping behavior (Maximum counts, counts/min) [4]: 20.0 counts/min; Representative value of the counts of protective wiping behavior (Maximum counts, counts/min) ([4]; listed as capsaicin): vigorous wiping behavior was observed; Value (%) when fluorescence intensity for capsaicin (1 μM) is 100% (TRPV1; 1 μM): 100%
4 | COc1cc(CNC(=O)C2CCN(C(=O)O[C@@H]3CCCC[C@@H]3C)CC2)ccc1O [Example 37, (1R,2S)-2-methylcyclohexyl 4-(4-hydroxy-3-methoxybenzylcarbamoyl)-piperidine-1-carboxylate] | no micronucleus inducing potential | 236% | 169% | 219% | Value (%) when fluorescence intensity for capsaicin (1 μM) is 100% (TRPV1; 1 μM): 101%
5 | COc1cc(CNC(=O)C2CCN(C(=O)OC3CCC(C)(C)CC3)CC2)ccc1O [Example 8] |  | 191% | 197% | 244% | Emax at 1 µM (TRPV1; [6]): 96%; melting point: 111 °C
6 | CCC1(CC)CCC(OC(=O)N2CC(C(=O)NCc3ccc(O)c(OC)c3)C2)CC1 [Example 14, 4,4-diethylcyclohexyl 3-(4-hydroxy-3-methoxybenzylcarbamoyl)-azetidine-1-carboxylate] |  | 241% |  |  | Emax at 1 µM (TRPV1; [6]): 78%
7 | CC(C)C[C@H](CN)CC(=O)O [Pregabalin, reference compound] |  |  |  |  | % to pre-administration value: (2) Pregabalin post-oral administration value (vehicle control administered on the day before) ([3]; vehicle i.pl. the day before, Pregabalin 10 mg/kg orally, measured an hour later, Pregabalin alone): 125%
